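In this assay, cells in 96-well plates receive the compound at five concentrations for 48 hours. Endpoints are linearly interpolated between the surrounding concentrations. At the GI50, growth is halved. TGI: total growth inhibition.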
Tests used:
Assay in all cases: growth of human tumour cells (NCI), 48 h
[1] = system: CAKI-1 renal
[2] = system: SNB-19 CNS
[3] = system: COLO 205 colon
[4] = system: HOP-92 NSCLC
[5] = system: SNB-75 CNS
[6] = system: OVCAR-8 ovarian
[7] = system: RXF 393 renal
[8] = system: SK-MEL-28 melanoma
[9] = system: EKVX NSCLC
[10] = system: MDA-MB-231 breast

SMILES	TGI [1] [µM]	TGI [2] [µM]	TGI [3] [µM]	TGI [4] [µM]	TGI [5] [µM]	TGI [6] [µM]	TGI [7] [µM]	TGI [8] [µM]	TGI [9] [µM]	GI50 [2] [µM]	GI50 [3] [µM]	GI50 [4] [µM]	GI50 [5] [µM]	GI50 [6] [µM]	GI50 [7] [µM]	GI50 [8] [µM]	GI50 [9] [µM]	GI50 [10] [µM]	TGI [10] [µM]	GI50 [1] [µM]
CC1=N/C(=C/c2ccc3c(c2)OCO3)C(=O)O1	> 100	> 100	> 100	> 100	> 100	> 100	> 100	> 100	> 100											
Clc1c(Cl)[n+](Cc2ccc3ccccc3c2)cn1Cc1ccc2ccccc2c1		2.7	2.57	2.14	2.21	3.3	3.1	3.04	4.98	1.32	1.13	0.733	0.836	1.65	1.63	1.63	1.83	1.42	2.93	
Cc1ccc(C)c(N2C(=O)C(=O)C(c3nc4ccccc4s3)/C(=N/N)C2=O)c1 (stereo not given)	> 100	> 100	> 100	> 100	> 100	> 100	> 100	> 100	> 100											
NC(=O)NNC(=O)CCn1[nH]c(=O)c(Cl)c(Cl)c1=O	> 100	> 100	> 100	> 100	> 100	> 100	> 100	> 100	> 100											
CC1(C)OC2C(CCP(=O)(O)O)OC(c3nc(C(N)=O)cs3)C2O1 (stereo not given)	> 100	> 100	> 100	> 100	> 100	> 100	> 100	> 100	> 100											
COc1cc(/C=C2\CC3C4CC=C5C[C@@H](OC(C)=O)CC[C@]5(C)C4CC[C@]3(C)C2=O)ccc1OCCN1CCCCC1 (stereo not given in full)	7.64	43.3	30.4		56.9	28.2	14.6	> 100	27.4	8.46	3.14		27.3	4.27	2.95	3.24	13.7	3.31	7.89	2.65
N#C/C(=C\c1cc(O)cc(O)c1)C(N)=O	> 100	> 100	> 100	> 100	> 100	> 100	> 100	> 100	> 100											
O=C1C=C(Nc2ccc(Cl)cc2Cl)c2ccccc2C1=O	> 100	> 100	> 100	56.5	70.4	> 100	> 100	> 100	> 100											
C=CSCCC(N)C(=O)O (stereo not given)	> 100	> 100	> 100	> 100	> 100	> 100	> 100	> 100	> 100											
Cc1cc2nc(NCCN)n(Cc3ccc(F)c(Cl)c3)c2cc1C	25.4	28.6	3.38	14.3	23.4	33.1		6.63	28.4	13.6	1.68	2.35	10.6	17		2.47	13.8	2.68	9.44	12.7
O=C(/C=C\c1ccccc1O)c1ccc(O)cc1O	> 100	> 100	72.9	> 100		> 100	> 100	> 100	> 100											
C=C[C@@H](C)[C@]1(C(=O)OC)CCCC12OCCO2	> 100	> 100	> 100	> 100	> 100	> 100	> 100	> 100	> 100											
CC(C)(C)C1=CC(=C(P(=O)(O)O)P(=O)(O)O)C=C(C(C)(C)C)C1=O	> 50	> 50		> 50	> 50	> 50		> 50	> 50											
CC(=O)Nc1ccc(/C=C/C(=O)c2sc(-c3cccnc3)nc2C)cc1	> 100		> 100	> 100	> 100	> 100	> 100	> 100	> 100											
CN(CCS(=O)(=O)N1C(=O)C2CCCN2C(=O)[C@@H]1Cc1ccccc1)C(=O)OCc1ccccc1 (stereo not given in full)	> 100	> 100	> 100	> 100	> 100	> 100	> 100	> 100	> 100											
O=C(CCC(=O)Nc1ccc(Cl)c(Cl)c1)Cc1nc2ccccc2o1	> 100	> 100	> 100	> 100	> 100	> 100	> 100	> 100	> 100											
Cc1onc(-c2ccccc2)c1C(=O)N/N=C/c1cc(Cl)cc(Cl)c1O	10.5	> 100	24.2		> 100	> 100	> 100	> 100		4.12	3.84		6.75	3.59	7.72	6.51		4.27	35.7	1.84
Cc1ccc(O)c(NC(=O)c2cccc(Nc3ccnc(C(F)(F)F)c3)c2)c1	31.8	69.8	33.7	21.1	25.3	19.7		31.2	59.4	17.9	14.6	2.24	11.4	5.52		16	3.37	11.6	44.8	11
NCCSSCc1ccccc1CSSCCN	> 100	> 100	> 100	> 100	> 100	> 100	> 100	> 100	> 100											

— PubChem BioAssay (NCI)
